Laboratory results published in patent publication US9980943B2, “Methods of treating muscular dystrophy” (BOARD OF REGENTS OF THE NEVADA SYSTEM OF HIGHER EDUCATION, …, priority 2013, dated 2018).
Where “and” joins values, the source holds several entries; their conditions need not be identical. Equal values may be shown once.

Key:
Assay type in all cases: cell-based, mouse
[1] = tested on: α7 integrin (LacZ reporter in α7+/LacZ myotubes); test: Myotube α7 integrin FDG assay (Burkin assay in myotubes, 96-well); settings: myotubes
[2] = tested on: β-galactosidase in CMV-LacZ C2C12 myotubes; test: CMV-LacZ secondary screen in C2C12 myotubes (β-Gal stabilizing assay); settings: C2C12 CMV-LacZ myotubes, fold relative to DMSO
Summary of the method: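 First, C2C12 myoblasts were transfected with a linearized CMV-LACZ vector and clonal lines selected by FDG β-gal assay. Then cells were exposed to compounds at 0.5, 1, 5, 10, 20 and 40 μM in 96-well format, two replicates each, and β-gal measured.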

[3] = tested on: β-galactosidase in CMV-LacZ C2C12 myoblasts; test: CMV-LacZ secondary screen in C2C12 myoblasts (β-Gal stabilizing assay); settings: CMV-LacZ C2C12 myoblasts
Summary of the method: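 CMV-LacZ C2C12 line (clonal, FDG-screened); myoblasts/myotubes dosed 0.5–40 μM (0.5, 1, 5, 10, 20, 40 μM); n=2 per point; β-gal stabilization read-out.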

[4] = tested on: α7 integrin (LacZ reporter in α7βgal+/− myoblasts); test: Myoblast α7+/LacZ integrin FDG assay (Burkin assay in myoblasts, 96-well); settings: α7+/LacZ myoblasts, 96-well

| Structure (SMILES) | Burkin Assay in Myotubes, α7 integrin LacZ reporter signal relative to DMSO ([1]; 0.5 uM) | Burkin Assay in Myotubes, α7 integrin LacZ reporter signal relative to DMSO ([1]; 1 uM) | Burkin Assay in Myotubes, α7 integrin LacZ reporter signal relative to DMSO ([1]; 5 uM) | Burkin Assay in Myotubes, α7 integrin LacZ reporter signal relative to DMSO ([1]; 10 uM) | Burkin Assay in Myotubes, α7 integrin LacZ reporter signal relative to DMSO ([1]; 20 uM) | Burkin Assay in Myotubes, α7 integrin LacZ reporter signal relative to DMSO ([1]; 40 uM) | CMV-LACZ in Myotubes, signal relative to DMSO ([2]; 0.5 uM) | CMV-LACZ in Myotubes, signal relative to DMSO ([2]; 1 uM) | CMV-LACZ in Myotubes, signal relative to DMSO ([2]; 5 uM) | CMV-LACZ in Myotubes, signal relative to DMSO ([2]; 10 uM) | CMV-LACZ in Myotubes, signal relative to DMSO ([2]; 20 uM) | CMV-LACZ in Myotubes, signal relative to DMSO ([2]; 40 uM) | CMV-LACZ in Myoblasts (β-galactosidase activity relative to DMSO) ([3]; 0.5 uM) | CMV-LACZ in Myoblasts (β-galactosidase activity relative to DMSO) ([3]; 1 uM) | CMV-LACZ in Myoblasts (β-galactosidase activity relative to DMSO) ([3]; 5 uM) | CMV-LACZ in Myoblasts (β-galactosidase activity relative to DMSO) ([3]; 10 uM) | CMV-LACZ in Myoblasts (β-galactosidase activity relative to DMSO) ([3]; 20 uM) | CMV-LACZ in Myoblasts (β-galactosidase activity relative to DMSO) ([3]; 40 uM) | Burkin Assay in Myoblasts, signal relative to DMSO ([4]; 0.5 uM) | Burkin Assay in Myoblasts, signal relative to DMSO ([4]; 1 uM) | further results |
| --- | --- | --- | --- | --- | --- | --- | --- | --- | --- | --- | --- | --- | --- | --- | --- | --- | --- | --- | --- | --- | --- |
| O=C(Nc1ccccc1Cl)C1CCCN1C(=O)OCc1ccccc1 (stereo not drawn) [MLS001030621-01] | 0.9724 | 0.9493 | 0.999 | 0.9429 | 0.7954 | 0.7203 | 0.7844 | 0.7970 | 0.9872 | 1.0546 | 0.9024 | 1.0141 | 0.7081 | 1.0531 | 1.0494 | 1.1844 | 1.0307 | 0.9063 | 1.004 | 1.158 | Burkin Assay in Myoblasts, signal relative to DMSO ([4]; 5 uM): 1.15; Burkin Assay in Myoblasts, signal relative to DMSO ([4]; 10 uM): 1.161; Burkin Assay in Myoblasts, signal relative to DMSO ([4]; 20 uM): 1.001; Burkin Assay in Myoblasts, signal relative to DMSO ([4]; 40 uM): 1.01 |
| CC(C(=O)Nc1ccc(C#N)cc1)N(C)CC(=O)Nc1cccc(F)c1 (stereo not drawn) [MLS001033255-01] | 0.91 | 0.8188 | 1.086 | 1.246 | 0.8337 | 1.232 | 1.1038 | 1.1438 | 0.9525 and 0.8423 | 1.0297 and 1.045 | 0.9930 and 1.013 | 0.7740 and 1.236 | 0.7590 | 1.0723 | 0.8766 | 1.0219 | 1.1919 | 0.7905 | 1.013 | 0.9373 | Burkin Assay in Myotubes (signal relative to DMSO) ([1]; 0.5 uM): 0.9678; Burkin Assay in Myotubes (signal relative to DMSO) ([1]; 1 uM): 0.9526; Burkin Assay in Myotubes (signal relative to DMSO) ([1]; 5 uM): 1.213; Burkin Assay in Myotubes (signal relative to DMSO) ([1]; 10 uM): 0.997; Burkin Assay in Myotubes (signal relative to DMSO) ([1]; 20 uM): 0.8683; Burkin Assay in Myotubes (signal relative to DMSO) ([1]; 40 uM): 1.04; Burkin Assay in Myoblasts, value relative to DMSO ([4]; 0.5 uM): 0.9467; Burkin Assay in Myoblasts, value relative to DMSO ([4]; 1 uM): 0.9407; Burkin Assay in Myoblasts, signal relative to DMSO ([4]; 5 uM): 1.017; Burkin Assay in Myoblasts, value relative to DMSO ([4]; 5 uM): 0.9509; Burkin Assay in Myoblasts, signal relative to DMSO ([4]; 10 uM): 1.124; Burkin Assay in Myoblasts, value relative to DMSO ([4]; 10 uM): 0.9542; Burkin Assay in Myoblasts, signal relative to DMSO ([4]; 20 uM): 0.985; Burkin Assay in Myoblasts, value relative to DMSO ([4]; 20 uM): 0.7962; Burkin Assay in Myoblasts, signal relative to DMSO ([4]; 40 uM): 0.8279; Burkin Assay in Myoblasts, value relative to DMSO ([4]; 40 uM): 0.799 |
| CCc1ccc(S(=O)(=O)NCCOc2cccc3cccnc23)cc1 [MLS001034810-01] | 1.035 | 1.07 | 1.403 | 1.165 | 1 | 0.7593 | 1.1000 | 1.7389 | 0.9578 | 1.0965 | 1.0578 | 1.1344 | 0.9698 | 0.9538 | 1.0948 | 0.9459 | 1.1193 | 0.7030 | 1.021 | 0.9975 | Burkin Assay in Myoblasts, signal relative to DMSO ([4]; 5 uM): 1.375; Burkin Assay in Myoblasts, signal relative to DMSO ([4]; 10 uM): 1.191; Burkin Assay in Myoblasts, signal relative to DMSO ([4]; 20 uM): 0.8996; Burkin Assay in Myoblasts, signal relative to DMSO ([4]; 40 uM): 0.8407 |
| O=C(c1ccccc1)N1CCN(S(=O)(=O)c2cccs2)CC1 [MLS001035690-01] | 1.111 | 1.072 | 1.073 | 0.9358 | 0.972 | 0.9238 | 1.0474 | 0.8644 | 1.1552 | 1.1317 | 1.1976 | 1.0976 | 0.9819 | 1.0406 | 0.9910 | 1.2020 | 1.3585 | 0.9178 | 1.051 | 1.151 | Burkin Assay in Myoblasts, signal relative to DMSO ([4]; 5 uM): 1.186; Burkin Assay in Myoblasts, signal relative to DMSO ([4]; 10 uM): 0.9872; Burkin Assay in Myoblasts, signal relative to DMSO ([4]; 20 uM): 1.055; Burkin Assay in Myoblasts, signal relative to DMSO ([4]; 40 uM): 1.091 |
| Cc1noc(C)c1COc1ccc(C(=O)NCCc2ccccn2)cc1 [MLS001061374-01] | 1.058 | 1.092 | 1.004 | 1.181 | 0.732 | 0.8155 | 1.2568 | 1.1000 | 1.1237 | 0.8498 | 1.1689 | 1.0489 | 0.7117 | 1.1702 | 1.0601 | 0.9793 | 0.9744 | 1.1037 | 0.8477 | 0.8448 | Burkin Assay in Myoblasts, signal relative to DMSO ([4]; 5 uM): 0.9826; Burkin Assay in Myoblasts, signal relative to DMSO ([4]; 10 uM): 1.169; Burkin Assay in Myoblasts, signal relative to DMSO ([4]; 20 uM): 0.873; Burkin Assay in Myoblasts, signal relative to DMSO ([4]; 40 uM): 0.6774 |
